We go through 13 compounds from patent publication US8592415B2, “Selective kinase inhibitors” (Reaction Biology Corp., priority 2009, dated 2013).

Test [1] deals with adjuvant-induced arthritis. As to conditions: rat; cited from earlier work.
Test [2] relates to collagen-induced arthritis. The following applies: rat; cited from earlier work.
The next test deals with SZ-4 cells. Kind of test: IL-2 dependent cell proliferation assay (MTT). In kind it is cell-based. As to conditions: Homo sapiens, 72 hr, IL-2, MTT, read-out: IC50, inhibition of proliferation. The text has this:
The number of surviving cells is directly proportional to the level of the formazan product created.

The next test addresses JAK1 (Homo sapiens, UniProt P23458). Kind of test: In vitro JAK kinase enzymatic assay (JAK1). Type of test: biochemical. On the procedure:
(§1) The JAK3 kinase is recombinant human protein (catalytic domain, amino acids 781-1124 with GST-tag), expressed in insect cells (Invitrogen Catalog PV3855). The substrate is poly-glutamic acid-tyrosin peptide, Poly-(GT) (4:1) (Sigma-Aldrich, catalog P7244). [γ-^33P]-ATP is purchased from Perkin Elmer (catalog NEG602H001MC) (EasyTides). Kinase reaction buffer is 100 mM HEPES (pH 7.5), 20 mM MgCl2, 2 mM EGTA, 0.02% Brij 35. The JAK1 (Invitrogen Catalog PV4774), JAK2 (Invitrogen Catalog PV4210) and TYK2 Invitrogen Catalog PV4790) enzymatic assays are performed in the similar way. JAK1 and JAK2 substrate is Poly-(GT) (4:1), but TYK2 substrate is peptide with sequences of […]. The reaction is carried for 2 hours at room temperature. After the reactions are finished or stopped, portion or all the reaction mixtures are transferred onto filter paper P81 Phosphocellulose paper (Whatman catalog 3698-915) for binding the final radioisotope labeled products. The unreacted phosphate are washed away without interfering with the detection of real phosphorylated products. The final product can be detected by instruments such as scintillation counter, top counter or phosphoimager. The enzymatic assays can also performed in assays described those described in the art [e.g., Ma H et al, Expert Opin. Drug Discov. 3, 607-621 (2008); Olive D M, Expert Rev Proteomics, 1, 327-341 (2004)].
(§2) Signal=Bottom+(Top−Bottom)/(1+10^((Log(IC50)−Log [I])*Hill Slope) Bottom and Top refer to the post and pre-transition baselines, respectively.

A further test has as its target TYK2 (Homo sapiens (Human), UniProt P29597). Kind of test: In vitro JAK kinase enzymatic assay (TYK2). In kind it is biochemical. As for the experimental part: as §1, §2
A further test deals with JAK3 phosphorylation. Nature of the test: JAK3 phosphorylation detection by immunoprecipitation and Western blot. Type of test: cell-based, human. The following applies: 0.8 μM compound with IL-2; IL-2 alone more than 12-fold. As for the experimental part: Cell lines: The SZ-4 cell line is derived from a Sézary patient (Abrams, et al., 1991, J Investig Dermatol. 96, 31-37), and the growth of this cell line is IL-2 dependent. The cells are grown in RPMI 1640 medium supplemented with 10% fetal calf serum, 2 mM L-glutamine, penicillin 100 U/ml, streptomycin 100 ug/ml, and 10 I.U/ml IL-2 in a 5% CO2 humidified incubator at 37° C.
Protein and phosphorylation detection by immunoprecipitation and Western Blot: the above cells is used to evaluate the compounds activities of inhibiting JAK/STAT phosphorylations. After the cells are treated as described above, cells are collected and pelleted by centrifuging, cell pellets are then lysed with PI/RIPA lysis buffer (1% NP40, 1% Deoxycholic Acid, 0.1% SDS, 0.15M NaCl, 10 mM Sodium Phosphate, 1 mM PMSF, 2 mM EDTA, 10 mM NaF, 10 mM Napyrophosphate, 0.4 mM Na3VO4, 10 mM Indoacetamide, PH, 8.0) on ice. The lysed cells are centrifuged at 15,000 rpm to remove cell debris, add 5 ul of Anti-Phosphotyrosine, 4G10® Platinum (Upstate Biotechnology, Lake Placid, N.Y.), and incubate for 90 min on ice. Then, the protein A-Sepharose (Invitrogen, Carlsbad, Calif.) is added to precipitate the immune complexes for 1 hr at 4° C. The immunoprecipitates are washed 3× with lysis buffer, and suspended in loading buffer. […]
In general terms: A western blot detects proteins with antibodies after separation by electrophoresis.

Test [3] addresses JAK2. Nature of the test: In vitro JAK kinase enzymatic assay (JAK2). In kind it is biochemical. On the procedure:
as §1, with “The” for “The JAK3 kinase is recombinant human protein (catalytic domain, amino acids 781-1124 with GST-tag), expressed in insect cells (Invitrogen Catalog PV3855). The”, “After the reactions are finished or stopped, portion or all the reaction mixtures are transferred onto filter paper P81 Phosphocellulose paper (Whatman catalog 3698-915) for binding the final radioisotope labeled products.” left out, “Discov.” for “Discov. 3, 607-621 (2008); Olive D M, Expert Rev Proteomics, 1, 327-341 (2004)].”
as §2

Test [4] concerns the target JAK2 (Homo sapiens, UniProt O60674). Kind of test: In vitro JAK kinase enzymatic assay (JAK2). In kind it is biochemical. On the procedure: as §1, with “The” for “The JAK3 kinase is recombinant human protein (catalytic domain, amino acids 781-1124 with GST-tag), expressed in insect cells (Invitrogen Catalog PV3855). The”, “After the reactions are finished or stopped, portion or all the reaction mixtures are transferred onto filter paper P81 Phosphocellulose paper (Whatman catalog 3698-915) for binding the final radioisotope labeled products.” left out, “Discov.” for “Discov. 3, 607-621 (2008); Olive D M, Expert Rev Proteomics, 1, 327-341 (2004)].”
as §2

Test [5] has as its target T1, JAK3 (Homo sapiens (Human), UniProt P52333). Kind of test: In vitro JAK kinase enzymatic assay (JAK3). Type of test: biochemical. On the procedure: as §1, §2
Target sequence in this assay (P52333 781-1124): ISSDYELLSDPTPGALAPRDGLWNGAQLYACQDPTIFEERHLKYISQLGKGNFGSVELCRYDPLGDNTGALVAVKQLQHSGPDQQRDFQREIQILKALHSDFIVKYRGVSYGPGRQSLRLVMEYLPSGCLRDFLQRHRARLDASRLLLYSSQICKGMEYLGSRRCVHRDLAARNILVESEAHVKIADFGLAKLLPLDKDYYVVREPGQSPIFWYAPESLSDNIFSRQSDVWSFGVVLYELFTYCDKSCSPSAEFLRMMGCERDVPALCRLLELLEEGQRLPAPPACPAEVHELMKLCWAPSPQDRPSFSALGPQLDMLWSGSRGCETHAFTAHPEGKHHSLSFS
For test [6], the system named is myeloid dendritic cells (DCs). The following applies: cited from earlier work.
The test system of test [7] is autoimmune type I diabetes. As to conditions: NOD mouse; cited from earlier work.
In test [8] the target is T1, JAK3. The following applies: cited from earlier work.
Target sequence in this assay (P52333 whole entry): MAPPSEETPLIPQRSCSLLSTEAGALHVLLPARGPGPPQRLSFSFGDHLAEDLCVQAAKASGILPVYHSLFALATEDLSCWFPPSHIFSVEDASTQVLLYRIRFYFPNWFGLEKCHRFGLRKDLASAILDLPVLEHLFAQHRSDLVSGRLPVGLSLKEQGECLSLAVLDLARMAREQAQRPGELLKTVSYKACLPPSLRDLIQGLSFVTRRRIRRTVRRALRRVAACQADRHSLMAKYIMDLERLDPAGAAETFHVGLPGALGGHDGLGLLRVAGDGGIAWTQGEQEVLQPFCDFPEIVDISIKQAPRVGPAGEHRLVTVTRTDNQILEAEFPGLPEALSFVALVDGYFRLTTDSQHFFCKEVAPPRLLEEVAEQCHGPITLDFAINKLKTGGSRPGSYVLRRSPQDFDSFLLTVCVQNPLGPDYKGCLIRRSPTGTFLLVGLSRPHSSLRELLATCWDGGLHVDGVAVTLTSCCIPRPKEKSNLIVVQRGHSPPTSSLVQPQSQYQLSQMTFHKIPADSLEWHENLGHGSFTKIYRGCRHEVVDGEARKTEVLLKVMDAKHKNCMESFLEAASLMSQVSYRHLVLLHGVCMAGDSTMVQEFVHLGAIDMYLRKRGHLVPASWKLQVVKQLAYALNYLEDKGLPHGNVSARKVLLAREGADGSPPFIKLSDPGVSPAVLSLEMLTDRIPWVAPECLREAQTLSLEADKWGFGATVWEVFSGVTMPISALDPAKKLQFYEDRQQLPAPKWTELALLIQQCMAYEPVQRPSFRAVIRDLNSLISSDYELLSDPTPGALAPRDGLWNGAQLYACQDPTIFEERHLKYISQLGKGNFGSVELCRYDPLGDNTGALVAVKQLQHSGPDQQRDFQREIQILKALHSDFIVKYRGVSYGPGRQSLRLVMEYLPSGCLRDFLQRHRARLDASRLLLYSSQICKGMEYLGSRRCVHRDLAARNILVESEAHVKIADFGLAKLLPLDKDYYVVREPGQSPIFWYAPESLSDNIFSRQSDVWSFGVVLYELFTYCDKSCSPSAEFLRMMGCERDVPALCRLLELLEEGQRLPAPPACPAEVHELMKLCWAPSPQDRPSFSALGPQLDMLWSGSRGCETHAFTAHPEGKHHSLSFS
Test [9] concerns amyotrophic lateral sclerosis (ALS). The following applies: transgenic mouse model of ALS; cited from earlier work.

JAK2 (Homo sapiens, UniProt O60674), sequence (O60674 whole entry, looked up, the tested form may be a part): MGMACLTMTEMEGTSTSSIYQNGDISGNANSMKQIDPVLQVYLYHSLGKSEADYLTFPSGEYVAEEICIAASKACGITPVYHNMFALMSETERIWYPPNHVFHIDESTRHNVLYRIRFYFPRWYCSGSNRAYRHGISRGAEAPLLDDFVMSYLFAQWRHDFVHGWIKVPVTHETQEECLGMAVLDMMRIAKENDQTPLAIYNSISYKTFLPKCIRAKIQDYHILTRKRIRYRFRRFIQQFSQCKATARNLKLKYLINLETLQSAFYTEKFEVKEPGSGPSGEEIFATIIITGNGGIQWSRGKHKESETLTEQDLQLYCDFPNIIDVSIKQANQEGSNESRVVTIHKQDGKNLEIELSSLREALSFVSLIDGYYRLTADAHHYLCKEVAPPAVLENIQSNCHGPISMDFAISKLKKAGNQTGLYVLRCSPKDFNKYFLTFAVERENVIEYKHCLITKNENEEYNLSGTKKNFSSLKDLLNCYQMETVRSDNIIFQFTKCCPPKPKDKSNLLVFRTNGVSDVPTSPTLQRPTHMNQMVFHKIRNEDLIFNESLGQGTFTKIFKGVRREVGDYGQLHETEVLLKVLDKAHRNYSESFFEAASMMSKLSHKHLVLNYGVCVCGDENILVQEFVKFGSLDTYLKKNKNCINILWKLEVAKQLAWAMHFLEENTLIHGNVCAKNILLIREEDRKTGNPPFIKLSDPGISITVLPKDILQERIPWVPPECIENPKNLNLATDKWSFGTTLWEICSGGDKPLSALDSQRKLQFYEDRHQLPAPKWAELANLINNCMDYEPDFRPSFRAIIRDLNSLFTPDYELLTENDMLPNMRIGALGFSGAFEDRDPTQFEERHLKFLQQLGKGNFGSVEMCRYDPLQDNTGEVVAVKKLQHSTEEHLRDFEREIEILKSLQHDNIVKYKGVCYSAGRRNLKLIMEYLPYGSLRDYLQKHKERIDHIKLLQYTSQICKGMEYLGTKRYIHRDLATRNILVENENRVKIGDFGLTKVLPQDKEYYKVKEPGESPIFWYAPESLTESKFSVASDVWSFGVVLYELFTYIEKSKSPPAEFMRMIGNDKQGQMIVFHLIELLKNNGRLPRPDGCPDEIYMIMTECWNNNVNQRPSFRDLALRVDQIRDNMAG
TYK2, sequence (P29597 whole entry): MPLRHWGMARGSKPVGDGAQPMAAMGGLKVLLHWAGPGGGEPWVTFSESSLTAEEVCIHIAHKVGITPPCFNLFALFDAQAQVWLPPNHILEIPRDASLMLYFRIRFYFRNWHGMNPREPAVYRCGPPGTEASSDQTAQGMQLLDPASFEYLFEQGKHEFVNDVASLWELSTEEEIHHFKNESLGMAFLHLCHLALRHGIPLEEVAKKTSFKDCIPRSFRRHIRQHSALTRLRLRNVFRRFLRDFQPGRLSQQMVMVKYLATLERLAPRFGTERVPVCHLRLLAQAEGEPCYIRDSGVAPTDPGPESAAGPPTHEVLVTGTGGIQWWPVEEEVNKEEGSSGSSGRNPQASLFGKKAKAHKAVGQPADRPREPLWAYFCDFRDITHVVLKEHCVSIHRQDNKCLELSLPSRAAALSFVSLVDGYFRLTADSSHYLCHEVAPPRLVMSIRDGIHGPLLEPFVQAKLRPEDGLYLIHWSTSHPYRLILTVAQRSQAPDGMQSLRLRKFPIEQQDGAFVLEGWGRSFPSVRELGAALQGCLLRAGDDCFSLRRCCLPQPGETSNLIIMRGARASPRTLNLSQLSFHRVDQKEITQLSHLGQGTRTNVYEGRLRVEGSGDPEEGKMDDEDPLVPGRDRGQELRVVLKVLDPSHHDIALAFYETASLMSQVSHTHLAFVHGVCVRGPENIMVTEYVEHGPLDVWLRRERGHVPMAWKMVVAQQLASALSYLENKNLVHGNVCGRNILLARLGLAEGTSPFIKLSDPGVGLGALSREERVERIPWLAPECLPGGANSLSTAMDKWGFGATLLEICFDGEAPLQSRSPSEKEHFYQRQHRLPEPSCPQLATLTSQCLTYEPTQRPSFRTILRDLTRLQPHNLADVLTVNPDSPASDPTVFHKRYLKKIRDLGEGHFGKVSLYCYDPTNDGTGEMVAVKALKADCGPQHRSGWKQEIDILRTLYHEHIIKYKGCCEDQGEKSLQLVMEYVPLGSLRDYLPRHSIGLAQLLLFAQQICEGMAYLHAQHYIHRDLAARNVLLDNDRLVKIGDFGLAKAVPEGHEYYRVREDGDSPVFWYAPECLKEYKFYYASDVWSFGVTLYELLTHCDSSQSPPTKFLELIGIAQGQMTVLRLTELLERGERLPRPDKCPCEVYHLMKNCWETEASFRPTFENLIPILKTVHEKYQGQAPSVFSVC

As to `C[C@@H]1CCN(C(=O)CC#N)C[C@@H]1N(C)c1ncnc2[nH]ccc12` [CP-690550], the “effect in adjuvant-induced arthritis” value in test [1] is “therapeutic effects”. Further, in test [2], the “effect in collagen-induced arthritis” value is “therapeutic effects”.
In the case of `O=C(CCl)Nc1cccc(-c2cnc3ccccc3n2)c1` [Example 1, 2-chloro-N-(3-quinoxalin-2-ylphenyl)acetamide], the IC50 with SZ-4 cells is 0.0003 µM; against JAK1 it was above 20 µM; against TYK2 it was above 20 µM; against JAK2 [3], above 20 µM; on JAK2 [4], above 10 µM; against JAK3 [5], 0.0002 µM. For the same compound, the “JAK3 phosphorylation level increase above background level” value with JAK3 phosphorylation is “about 2 fold”.
On to `COc1cc2ncnc(Nc3ccc(O)c(Br)c3)c2cc1OC` [WHI-P-154], for which, in test [6], the “effect on CD40-induced DC maturation” value is “prevented these effects”.
Consider `N#CCC(=O)Nc1cccc(-c2cnc3ccccc3n2)c1` [Example 8, 2-cyano-N-[3-(quinoxalin-2-yl)phenyl]acetamide], for which the IC50 is above 20 µM on JAK1; above 20 µM against TYK2; 18.1 µM against JAK2 [3]; above 10 µM on JAK2 [4]; 0.136 µM on JAK3 [5].
As to `COc1cc2ncnc(Nc3ccc(O)cc3)c2cc1OC` [JANEX-1], in test [7], the onset of diabetes entry is listed as “delayed the onset of diabetes”.
Take `O=C(CN1CCN(c2ccccc2)CC1)Nc1cccc(-c2cnc3ccccc3n2)c1` [Example 16, 2-(4-phenylpiperazin-1-yl)-N-[3-(quinoxalin-2-yl)phenyl]acetamide]: the IC50 in the test on SZ-4 cells was 0.27 µM; on JAK1 it was above 20 µM; on TYK2, above 20 µM; on JAK2 [3] it was 18 µM; against JAK2 [4] it was above 10 µM; against JAK3 [5] it was 0.27 µM.
As for `O=C(Nc1cccc(-c2cnc3ccccc3n2)c1)C(Cl)Cl` [Example 18, 2,2-dichloro-N-[3-(quinoxalin-2-yl)phenyl]acetamide], the IC50 against JAK1 was above 10 µM; at TYK2 it was above 10 µM; against JAK2 [4], above 10 µM; at JAK3 [5], 0.5 µM.
`CC(Cl)C(=O)Nc1cccc(-c2cnc3ccccc3n2)c1` (stereo not shown) [Example 21, 2-chloro-N-(3-(quinoxalin-2-yl)phenyl)propanamide]: the IC50 is above 50 µM on JAK1, above 50 µM against TYK2, above 50 µM against JAK2 [4] and 0.33 µM at JAK3 [5].
On to `COc1cc2ncnc(Nc3ccc(O)cc3)c2cc1OC` [WHI-P131], for which the “JAK3 IC50s” value on JAK3 [8] is reported as “low μM ranges”. Also, the survival result in test [9] is “increased survival”.
On to `O=C(CN1CCCCC1)Nc1cccc(-c2cnc3ccccc3n2)c1` [Example 9, 2-(piperidin-1-yl)-N-[3-(quinoxalin-2-yl)phenyl]acetamide], for which the IC50 against JAK1 was above 20 µM; against TYK2, above 20 µM; against JAK2 [3], above 20 µM; on JAK2 [4] it was above 10 µM; against JAK3 [5], 0.175 µM.
In the case of “2-[4-(4-chlorophenyl)piperazin-1-yl]-N-(3-(quinoxalin-2-yl)phenyl)acetamide [Example 4]”, the IC50 was above 20 µM at JAK1, above 20 µM against TYK2, above 20 µM at JAK2 [4] and 2.7 µM against JAK3 [5].
`O=S(=O)(Nc1cccc(-c2cnc3ccccc3n2)c1)c1cccs1` [Example 13, N-[3-(quinoxalin-2-yl)phenyl]thiophene-2-sulfonamide]: the IC50 on JAK1 was above 50 µM; against TYK2, above 50 µM; against JAK2 [4], 55.5 µM; on JAK3 [5], above 50 µM.
Turning to `O=C(CCCl)Nc1cccc(-c2cnc3ccccc3n2)c1` [Example 19, 3-chloro-N-[3-(quinoxalin-2-yl)phenyl]propanamide], the IC50 at JAK1, at TYK2, against JAK2 [4] and against JAK3 [5] was above 50 µM throughout.
